# Measured values as given in US20090012018A1, “Inhibition of pancretic cancer cell growth” (priority 2004, published 2009).
# “Also recorded” adds a separate entry of the source.
# What was measured:
# [1] = test system: pancreatic adenocarcinoma cell lines; test: Growth, BrdU incorporation and apoptosis of pancreatic cancer cell lines (results stated for the lines together); type: cell-based, human; settings: for pancreatic cancer cell growth or survival: drug treatment vs untreated control cells, NS-398 up to 25 μM, sodium salicylate up to 100 μM, sulindac sulfone up to 300 μM, FIG. 3B, 5B
# Method: (§1) The small chemical inhibitors were used at the following final concentrations: up to 250 μM for sulindac (Sigma), up to 300 μM for sulindac sulfone (Calbiochem or ICN), NS-398 up to 25 μM (Calbiochem), sodium salicylate up to 100 μM (Calbiochem). […] To test for drug sensitivity, the cells were plated in control medium or in medium containing the drug of interest for 2 to 5 days. The culture media was changed every 48 hrs. The images showing cell morphology were taken with a Nikon inverted microscope.
# (§2) Cells were pulsed with 10 μM BrdU for two hours and then harvested and fixed. BrdU incorporation was detected with a fluorescein isothiocyanate conjugated anti-BrdU antibody (BD Biosciences) and total DNA was stained with 7-AAD (BD Biosciences). FACS analysis was performed according to the BD Biosciences BrdU flow kit manual. Cells in S-phase were defined as the BrdU-positive cell population with a DNA content between 2N and 4N. According to the manual, apoptotic cells were defined as a subpopulation of G0/G1 cells with DNA content lower than the diploid amount (<2N).
# (§3) The cell lines were plated the day prior to transfection at a density of 8×10^4 cells/well in a 24-well plate. The luciferase reporter constructs used included: Top-Flash and Fop-Flash containing multimerized Tcf-Lef binding sites or nonfunctional sites, respectively; TK-Luc (Promega); and GliBS containing 8×Gli binding sites upstream of the TK minimal promoter (Sasaki et al., Development, 124:1313-1322, 1997). In different experiments, the reporter constructs were co-transfected with an expression vector containing a dominant-negative form of Lef1 or the endogenous Wnt inhibitor Icat. The dominant negative Lef1 (gift from S. Pleasure) was generated by cloning the 63 amino acid N-terminal deleted form of Lef1 into the pEF5 plasmid. This construct also contains an IRES-EGFP cassette. The cDNA coding for the Icat protein was cloned into pIRES2-EGFP (BD Biosciences Clontech). Transfections were performed using the Effectene transfection reagent […] according to the user's manual. A Renilla luciferase plasmid (Promega) was included to control for transfection efficiency. Transfected cells were cultured in medium containing serum. […] Cells were harvested 24 hrs after transfection, and luciferase activity was assayed using the Dual Luciferase kit (Promega), according to the user's manual.
# Small interfering RNA (siRNA) oligonucleotides against β-catenin containing two thymidine residues (dTdT) at the 3′ end of the sequence (5′-[…] […] T-3′ set forth as SEQ ID NO:57) were used for treatment of cancer cells as described (Verma et al., Clin Cancer Res, 9:1291-1300, 2003). The GLI1 siRNA (sense 5′-[…] […]-3′ set forth as SEQ ID NO:58) was also used as described (Sanchez et al., Proc Natl Acad Sci USA 101:12561-12566, 2004). Small interfering RNA against GLI2 was ordered against the target sequence 5-[…] […] A-3′, set forth as SEQ ID NO:59). […] Cells were transfected with oligofectamine (Invitrogen) according to the user's manual, with a final siRNA concentration of 100 or 300 nM. Transfected cells were incubated for 48 hrs before harvesting.
# Panc1.28 = test: Sensitivity of pancreatic adenocarcinoma cells to drug treatment (cell proliferation, survival); type: cell-based, human; settings: FIG. 6
# Method: (§4) Human pancreatic adenocarcinoma cell lines HPAC, SW1990, Mpanc-96, SU86.86, PL45, Panc10.05 Panc2.03 and Panc8.13 were obtained from ATCC; cell lines MiaPaCa2, Panc1, CFPAC-1, HPAFII, Capan-2, AsPC1, Hs766T and BxPC3 were a gift from Schering Plough; cell lines COLO357, L3.3, L3.6 pl and L3.6 sl were a gift from I. Fidler; cell lines Panc3.27, Panc4.21, Panc5.04, Panc2.13, Panc1.28 and Panc6.03 were a gift from E. Jaffee. BxPC3 and the Panc cell lines were grown in RPMI medium (Gibco) supplemented with 10% FBS, L-glutamine and penicillin/streptomycin; medium for the Panc cells was also supplemented with insulin-transferrin-selenium (Gibco). The CFPAC-1, Panc1, AsPC1, Hs766T, L3.6sl and L3.6pl were grown in DMEM without phenol red (CellGro), supplemented with 10% FBS. Derivation and culture of PDC cells was as described (Schreiber et al., Gastroenterology, 127:250-260, 2004).
# as §1, §2
# Panc10.05 = test: as above; type: cell-based, human; settings: Panc 10.05; FIG. 6
# Method: as §4, §1, §2
# [2] = test system: Wnt signaling (Top-Flash reporter); test: Fop/Top-Flash luciferase reporter assay; type: cell-based, human; settings: for Top-Flash reporter activity (Wnt signaling): CFPAC-1, BxPC3, L3.6sl, Panc4.21, 24 hrs after transfection, sulindac 250 μM, sulindac sulfone 150 μM, cyclopamine 10 μM, or co-transfection
# Method: as §3
# For each Fop-luciferase or Top-luciferase experiment, a renilla luciferase construct was included. For each experimental condition (drug treatment, co-transfection or siRNA), triplicate Top- and Fop-luciferase samples were analyzed. To equilibrate the total vector-DNA (or siRNA) amount in all samples, equivalent amounts of an empty expression vector or unrelated siRNAs were transfected into control samples. The following equations were used to obtain the normalized luciferase values and the relative (fold) activation. The firefly luciferase (Fop and Top) values were divided by the renilla luciferase values to obtain the normalized luciferase values. The normalized Top values for each condition were divided by the Fop values of the same condition (e.g., untreated Top/untreated Fop; drug-treated Top/drug-treated Fop). […] To minimize the number of bars in each figure, only representative average Fop values are included in the graphs.
# [3] = test system: Hedgehog signaling (GliBS-luc reporter); test: GliBS-luciferase reporter assay; type: cell-based, human; settings: BxPC3 cells; cyclopamine 10 μM
# Method: The cell lines were plated the day prior to transfection at a density of 8×10^4 cells/well in a 24-well plate. The luciferase reporter constructs used included: Top-Flash and Fop-Flash containing multimerized Tcf-Lef binding sites or nonfunctional sites, respectively; TK-Luc (Promega); and GliBS containing 8×Gli binding sites upstream of the TK minimal promoter (Sasaki et al., Development, 124:1313-1322, 1997). In different experiments, the reporter constructs were co-transfected with an expression vector containing a dominant-negative form of Lef1 or the endogenous Wnt inhibitor Icat. The dominant negative Lef1 (gift from S. Pleasure) was generated by cloning the 63 amino acid N-terminal deleted form of Lef1 into the pEF5 plasmid. This construct also contains an IRES-EGFP cassette. The cDNA coding for the Icat protein was cloned into pIRES2-EGFP (BD Biosciences Clontech). Transfections were performed using the Effectene transfection reagent […] according to the user's manual. A Renilla luciferase plasmid (Promega) was included to control for transfection efficiency. Transfected cells were cultured in medium containing serum. […] Cells were harvested 24 hrs after transfection, and luciferase activity was assayed using the Dual Luciferase kit (Promega), according to the user's manual. […]
# Tcf4 = test: Immunofluorescence of Tcf expression in pancreatic cancer cells; type: cell-based, human; settings: cyclopamine for 24 hrs (FIG. 4C) or sulindac-treated
# Tcf1 = test: as above; type: cell-based, human; settings: pancreatic cancer cells (Panc4.21); cyclopamine for 24 hrs (FIG. 4C) or sulindac-treated
# CFPAC-1 = test: Sensitivity of pancreatic adenocarcinoma cells to drug treatment (cell proliferation, apoptosis); type: cell-based, human; settings: CFPAC-1 (CFPAC); vs untreated controls; FIG. 3B, 5
# Method: The culture media was changed every 48 hrs.
# as §2
# BxPC3 = test: as above; type: cell-based, human; settings: vs untreated controls, FIG. 3B
# Method: as §4, §1, §2
# L3.6sl = test: as above; type: cell-based, human; settings: vs untreated controls, FIG. 3B
# Method: as §4, §1, §2
# Panc4.21 = test: as above; type: cell-based, human; settings: vs untreated controls, FIG. 3B
# Method: as §4, §1, §2
# BxPC3 tumors = test: Subcutaneous tumor treatment in nude mice; type: in vivo, CD-1 nude mice
# Method: (§5) A total of 0.1 ml Hanks' balanced salt solution and matrigel (1:1) containing 2×10^6 cells was injected subcutaneously into CD-1 nude mice (Charles River Laboratories). Tumors were grown for 4 days to a minimum volume of 125 mm^3. Treatment was initiated simultaneously for all subjects. Mice were injected with vector alone (peanut oil: PBS 7:3 v/v) or with a sulindac solution (3 mg/mouse/day) daily for 5 days. Sulindac sulfone was administered orally (1.5 mg/mouse/day). At the end of the treatment period, tumors were excised from mice, weighed and photographed.
# CFPAC-1 tumors = test: Subcutaneous tumor treatment in nude mice; type: in vivo, CD-1 nude mice; settings: treated for five days vs controls, sulindac 3 mg/mouse/day injected, sulindac sulfone 1.5 mg/mouse/day orally
# Method: as §5
# L3.6sl tumors = test: Subcutaneous tumor treatment in nude mice; type: in vivo, CD-1 nude mice
# Method: as §5
# Individual or combined treatment was initiated after tumors were palpable.
# Solubility = type: physicochemical; settings: required oral application
# [4] = sulindac sulfone orally 1.5 mg/mouse/day, five days
# [5] = treated for five days vs untreated controls, sulindac 3 mg/mouse/day injected, sulindac sulfone 1.5 mg/mouse/day orally
molecule,measurement,setting,value
CS(=O)(=O)Nc1ccc([N+](=O)[O-])cc1OC1CCCCC1 [NS-398],pancreatic cancer cell growth or survival,[1],Neither NS-398 (blocks COX-2 activity) nor salicylate (blocks COX-2 transcription) showed any measurable effect
same,pancreatic cancer cell growth or survival,[1]; listed as NS398,comparable growth to untreated control cells
"CC1=C2C[C@H]3[C@@H](CC=C4C[C@@H](O)CC[C@@]43C)[C@@H]2CC[C@]12O[C@@H]1C[C@H](C)CN[C@H]1[C@H]2C [cyclopamine, 11-deoxojervine]",sensitivity / survival (phase contrast images),Panc1.28,not sensitive
same,sensitivity / survival (phase contrast images),Panc10.05,not sensitive
same,reduction of Wnt signaling,"[2]; BxPC3 cells, cyclopamine 10 μM",~23%
same,reduction of Hedgehog signaling,[3],17%
same,Tcf4 expression,Tcf4,efficiently abolished
same,Tcf4 expression,Tcf4; listed as Cyclopamine,inhibits Tcf4 and Tcf1 expression
same,Tcf1 expression,Tcf1,inhibits Tcf4 and Tcf1 expression; also recorded: reduce expression
O=C([O-])c1ccccc1O.[Na+] [sodium salicylate],pancreatic cancer cell growth or survival,[1],comparable growth to untreated control cells
same,pancreatic cancer cell growth or survival,[1]; listed as salicylate,Neither NS-398 (blocks COX-2 activity) nor salicylate (blocks COX-2 transcription) showed any measurable effect
CC1=C(CC(=O)O)c2cc(F)ccc2/C1=C\c1ccc(S(C)(=O)=O)cc1 [sulindac sulfone],"cell growth (proliferation, apoptosis)",CFPAC-1,only mildly affected; also recorded: diminishes growth
same,cell growth,BxPC3,strongly inhibits growth
same,cell growth,L3.6sl,strongly inhibits growth
same,cell growth,Panc4.21,strongly inhibits growth
same,sensitivity / survival (phase contrast images),Panc1.28,not sensitive
same,sensitivity / survival (phase contrast images),Panc10.05,not sensitive
same,cell proliferation as measured by BrdU incorporation,"[1]; 75 μM sulindac sulfone, 5 μM cyclopamine or both, FIG. 4H",inhibits cell proliferation
same,pancreatic cancer cell growth or survival,[1],blocked Wnt signaling and cell survival
same,Top-Flash reporter activity (Wnt signaling),[2],inhibit Wnt activity; also recorded: generally more effective than sulindac in blocking Wnt signaling
same,Top-Flash reporter activity (Wnt signaling),[2]; listed as Sulindac sulfone,blocked Wnt signaling
same,reduction of tumor mass,BxPC3 tumors; [4],60%
same,tumor growth,BxPC3 tumors; [5],reduced
same,"tumor growth (volume, size)",CFPAC-1 tumors,largely unaffected
same,reduction of tumor mass,L3.6sl tumors; [4],50%
same,tumor growth,L3.6sl tumors; [5],reduced
same,solubility,Solubility,limited solubility
ICAT: endogenous Wnt inhibitor; cDNA cloned into pIRES2-EGFP expression vector and transfected,cell proliferation (BrdU incorporation) after transfection,"[1]; four pancreatic cancer cell lines, 48 hours after transfection, siRNA 100 nM or 300 nM, FIG. 2C, 2D",strongly inhibits growth; also recorded: significantly reduced
same,Top-Flash reporter activity (Wnt signaling),[2],reduction of Top-Flash activity
